{"source": "PubChem BioAssay AID2842", "about": "(Southern Research Institute, 2010)"}
{"system": "M. tuberculosis H37Rv growth inhibition", "assay": "Mycobacterium tuberculosis H37Rv growth inhibition, putative kinase inhibitor library, confirmatory dose response (AID 2842);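 also: bacteria incubated one week before Alamar blue readout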", "units": {"IC90": "µg/mL"}}
{"smiles": "CCS(=O)(=O)c1cccc(C(=O)Nc2nnc(-c3ccc4c(c3)CCCC4)o2)c1", "IC90": 16.3}
{"smiles": "CCC(CO)Nc1ncnc2c1cnn2-c1ccc(Cl)c(Cl)c1", "note": "(stereo not drawn)", "IC90": 14.2}
{"smiles": "COc1cccc(C(=O)N(CCCn2ccnc2)c2nc3c(C)cccc3s2)c1OC", "IC90": 4.2}
{"smiles": "COc1cccc(-c2nnc(NC(=O)c3cccc(F)c3)o2)c1", "IC90": "< 0.2"}
{"smiles": "Cc1ccc(-c2nnc(NC(=O)C3CCCCC3)o2)c(C)c1", "IC90": 8.75}
{"smiles": "CCc1ccc2nc(Nc3nc4ccc(S(C)(=O)=O)cc4s3)sc2c1", "IC90": 7.52}
{"smiles": "O=C(c1ccco1)N(CCCn1ccnc1)c1nc2ccccc2s1", "IC90": 4.28}
{"smiles": "CCOC(=O)COc1ccc2c(C)c(-c3ccc(OC)c(OC)c3)c(=O)oc2c1", "IC90": 2.34}
{"smiles": "CCN1CCc2c(sc(NC(=O)c3ccccc3)c2-c2nc3ccccc3s2)C1", "IC90": 0.73}
{"smiles": "COC(=O)c1c2c(n3ccc(C)cc13)C(=O)c1ccccc1C2=O", "IC90": 0.35}
{"smiles": "Nc1c(C(=O)Nc2ccc(Br)cc2)sc2nc3c(c(-c4cccs4)c12)CCCC3", "IC90": 5.12}
{"smiles": "NC(=O)C1CCN(C2=NC(=O)/C(=C\\c3ccc(Cl)cc3Cl)S2)CC1", "IC90": "< 0.2"}
{"smiles": "CCOC(CNc1ncnc2c1cnn2-c1ccc(C)cc1)OCC", "IC90": 25.6}
{"smiles": "O=C1CN(C(=O)c2cccc3ccccc23)C(c2ccccc2)c2cc(Br)ccc2N1", "note": "(stereo not drawn)", "IC90": 8.15}
{"smiles": "C=CCNC(=S)NNc1ccc([N+](=O)[O-])cc1", "IC90": 10}
{"smiles": "O=C(Nc1ncc(Cc2ccccc2Cl)s1)c1cccs1", "IC90": 18.3}
{"smiles": "O=C(OCc1nc2ccccc2s1)c1ccc(C(=O)c2ccccc2)cc1", "IC90": 17.3}
{"smiles": "O=C(Nc1nnc(-c2ccc(Br)cc2)o1)c1sc2ccccc2c1Cl", "IC90": 6.7}
{"smiles": "COC(=O)c1c(NC(=O)c2ccccc2I)sc2c1CC(C)(C)NC2(C)C", "IC90": 13.2}
{"smiles": "COc1ccc(N2CC(c3nc4ccccc4n3Cc3ccccc3C)CC2=O)cc1", "note": "(stereo not drawn)", "IC90": 20.1}
{"smiles": "COc1ccccc1Cn1cc2c(-c3ccc(F)cc3)nnc-2c2cc(OC)c(OC)cc21", "IC90": 22}
{"smiles": "CC(=O)N1CCc2c(sc(NC(=O)c3ccc(C)c(C)c3)c2C(N)=O)C1", "IC90": 3.4}
{"smiles": "COc1ccc(-c2nnc(NC(=O)c3ccccc3C)o2)cc1", "IC90": 9.97}
{"smiles": "Fc1ccc(Nc2nc(Nc3cccc(F)c3)nc3nccnc23)cc1", "IC90": 60.6}
{"smiles": "Cc1ccc(C)c2sc(N(CCCn3ccnc3)C(=O)COc3ccccc3)nc12", "IC90": 6.05}
{"smiles": "O=C(OCc1ccco1)c1cc2cc(Br)ccc2oc1=O", "IC90": 16.3}
{"smiles": "O=C(Nc1nnc(C2=COCCO2)o1)c1ccc(Cc2ccccc2)cc1", "IC90": 28.1}
{"smiles": "COC(=O)CSCC(=O)Nc1nnc(-c2cccc(C)c2)s1", "IC90": 23.9}
{"smiles": "COc1cc2c3nnc(-c4ccc(C)cc4)c-3cn(Cc3cccc(C)c3)c2cc1OC", "IC90": 28.3}
{"smiles": "O=C(Nc1nnc(-c2ccc(Cl)s2)o1)C1CC1", "IC90": 26.8}
{"smiles": "CCOC(=O)c1c(NC(=O)c2ccccc2Br)sc2c1CC(C)(C)NC2(C)C", "IC90": 8.85}
{"smiles": "O=C(c1ccc(NC2=C(Cl)C(=O)N(Cc3ccccc3)C2=O)cc1)N1CCCCCC1", "IC90": 11.2}
{"smiles": "CCOC(=O)c1c(NC(=O)CCl)sc2c1CCCC2", "IC90": 29.8}
{"smiles": "COc1ccc2nc(Nc3nc(-c4cccs4)cs3)sc2c1", "IC90": 37.8}
{"smiles": "Cc1n[nH]c(=O)nc1N/N=C/c1cccc(OCc2ccccc2Cl)c1", "IC90": 35.9}
{"smiles": "O=C(Nc1nc2c(s1)CCc1ccccc1-2)c1cccc(Cl)c1", "IC90": 12.4}
{"smiles": "Cc1ccc(-n2ncc3c(NNC(=O)c4ccc(Cl)cc4Cl)ncnc32)cc1", "IC90": 11.9}
{"smiles": "N=C1SC(c2ccccc2)C(=O)N1c1nccs1", "note": "(stereo not drawn)", "IC90": 30.1}
{"smiles": "O=C(Nc1nnc(-c2ccc(F)cc2)o1)c1sc2ccccc2c1Cl", "IC90": 9.54}
{"smiles": "COc1ccc(Cl)cc1NC(=O)NC1CC(=O)N(c2ccc(C)c(C)c2)C1", "note": "(stereo not drawn)", "IC90": 28.5}
{"smiles": "O=C(OCc1nc2ccccc2s1)c1ccc(F)cc1", "IC90": 15.4}
{"smiles": "COc1ccccc1-c1nnc(Nc2nc3c(F)cccc3s2)o1", "IC90": 3.16}
{"smiles": "Cc1cccc(C(=O)Nc2nnc(C3=COCCO3)o2)c1", "IC90": 3.36}
{"smiles": "COc1ccc(CNc2nccn(-c3cc(C)c(Cl)cc3OC)c2=O)cc1", "IC90": 18.1}
{"smiles": "O=C(COc1ccc(Cl)cc1)N1CCN(c2ncnc3c2nnn3Cc2ccccc2)CC1", "IC90": 6.75}
{"smiles": "Cc1cccc2sc(NNC(=O)c3cc4ccccc4oc3=O)nc12", "IC90": 2.94}
{"smiles": "CCOc1ccc(-c2nnc3c4cc5c(cc4n(Cc4ccccc4OC)cc2-3)OCO5)cc1", "IC90": 9.22}
{"smiles": "Fc1ccc2nc(Nc3nc(-c4ccc(Cl)s4)cs3)sc2c1", "IC90": 7.87}
{"smiles": "O=S(=O)(Nc1cc(Cl)c(O)c2ccccc12)c1ccc(F)cc1", "IC90": 6.28}
{"smiles": "O=C(Nc1nnc(-c2cc(Cl)ccc2Cl)o1)c1ccc(S(=O)(=O)N2CCCCC2)cc1", "IC90": 11.7}
{"smiles": "CC1=C(C(=O)Nc2cccc(Cl)c2)C(c2ccc(Br)cc2)NC(=O)N1", "note": "(stereo not drawn)", "IC90": 20.3}
{"smiles": "O=C(NNc1nc2c(Cl)cccc2s1)c1coc2ccccc2c1=O", "IC90": 11.1}
{"smiles": "COc1ccc(OCc2nc(C#N)c(NCc3ccc(C)cc3)o2)cc1", "IC90": 12.1}
{"smiles": "COc1ccccc1N1CCN(c2nc(Nc3ccc(F)cc3)c3nccnc3n2)CC1", "IC90": 27.6}
{"smiles": "C=CCOC(=O)C1=C(C)NC(SCC(=O)OCC)=C(C#N)C1c1cccs1", "note": "(stereo not drawn)", "IC90": 4.44}
{"smiles": "Cc1ccc(-n2ncc3c(NC(C)C)ncnc32)cc1Cl", "IC90": 64}
{"smiles": "COc1cccc2sc(Nc3nc4c(s3)C(=O)CC(C)(C)C4)nc12", "IC90": 7.52}
{"smiles": "CC1CCc2nc(Nc3nc4cc5c(cc4s3)OCO5)sc2C1", "note": "(stereo not drawn)", "IC90": 14.4}
